Test results as given in patent US6440691B1, “Melanins with improved ability to inhibit HIV replication” (Large Scale Biology Corporation, priority 1997, dated 2002).
Where a SMILES comes first, the peptide text is derived from it.

Columns and labels:
HIV-1 IIIB = assay: Anti-HIV activity: protection of MT-2 cells from viral-induced cytopathic effect, neutral red uptake; type: cell-based; conditions: Table 2, CPE after three days
Method: Dried melanins were analyzed for anti-HIV activity essentially as described by Montefiori, et al., 1988, J. Clin. Microbiol. […] In brief, the antiviral activities of the various melanins and melanin derivatives described in the present examples were measured in 96-well microdilution plates. Two-fold serial dilutions of melanins were made in triplicate in a total of 100 μl growth medium (RPMI-1640 containing 12% host-inactivated fetal bovine serum and 50 μg gentamicin/ml) per well. MT-2 cells (5×10^4) in 100 μl of growth medium were added to each well and incubated for 10 minutes. Fifty microliters of virus (5×10^4 TCID50/50 μl) were then added to all wells except for one row of eight noncytopathic control wells; these received growth medium in place of virus. Viral-induced cytopathic effect (CPE) was quantified three days later by vital dye (neutral red) uptake in remaining viable cells. Neutral red uptake is a linear function of cell viability with A540 of 0.025 to 0.85 corresponding to 2×10^4 to 25×10^4 viable cells/well (Montefiori, et al., 1988). Percent protection is defined as the difference in A540 between test wells (cells+melanin+virus) and virus control wells (cells+virus) divided by the difference in between cell control wells (cells only) and virus control wells.

HIV-2 (ROD) = tested on: HIV-2 (ROD); design: unit not given here; conditions: Table 1; cited from earlier work
HIV-1 (111a) = tested on: HIV-1 (111a); design: unit not given here; conditions: Table 1; cited from earlier work

| Compound | Effective Dose 50 EC50 (HIV-1 IIIB) [µg/mL] | 50% inhibitory concentration IC50, HIV-2 (ROD) (HIV-2 (ROD)) | 50% inhibitory concentration IC50, HIV-1 (111a) (HIV-1 (111a)) |
| --- | --- | --- | --- |
| NCC(=O)N[C@@H](Cc1ccc(O)cc1)C(=O)O [Gly-Tyr] (H-Gly-Tyr-OH) | >50 | – | – |
| á-cyclodextrin hexasulfate | – | 1.9 | 26.2 |
| á-cyclodextrin tetradecasulfate | – | 1.0 | 0.8 |
| â-cyclodextrin heptasulfate | – | 1.8 | 3.0 |
| ã-cyclodextrin hexadecasulfate | – | 0.4 | 0.2 |
| ã-cyclodextrin octasulfate | – | 1.6 | 0.6 |
